In US20100330093A1, “TREATMENT OF MELANOMA WITH ALPHA THYMOSIN PEPTIDES IN COMBINATION WITH ANTIBODIES AGAINST CYTOTOXIC T LYMPHOCYTE-ASSOCIATED ANTIGEN 4 (CTLA4)” (SciClone Pharmaceuticals, Inc., priority 2007, published 2010):
No end group written: not given here.

Tests used:
[1] = system: murine B16 melanoma cells; assay: Subcutaneous murine B16 melanoma tumor model in C57BL/6 mice (tumor volume, tumor weight); type: in vivo; conditions: for percent inhibition of tumor weight (PITW): Day 16 necropsy, DTIC 5 mg/kg s.c. daily, TA-1 6 mg/kg s.c. daily, 9H10 i.p. Day 3 (100 μg), Day 6 (50 μg), Day 9 (50 μg), vs vehicle
Experimental: (§1) C57BL/6 mice were implanted subcutaneously with murine B16 melanoma cells (Cell Culture Center, Institute of Basic Medical Sciences, Peking Union Medical College and Chinese Academy of Medical Sciences PUMC&CAMS, Beijing, P.R.China), followed by treatment with TA-1 or DTIC alone or in combination for 14 consecutive days. The day of tumor implantation was defined as Day 0. Meanwhile 9H10 was given in two groups via i.p. on Day 3, 6 and 9. TA-1 and DTIC were administered daily by s.c. injection. In total, 5 groups of mice (n=10) were used: Group 1: vehicle; Group 2: DTIC 5 mg/kg; Group 3: TA-1 6 mg/kg; Group 4: DTIC 5 mg/kg+9H10 (Day 3 (100 μg), Day 6 (50 μg), Day 9 (50 μg)); Group 5: DTIC 5 mg/kg+TA-1 6 mg/kg+9H10 (Day 3 (100 μg), Day 6 (50 μg), Day 9 (50 μg)) (Table 1). The animals were six weeks old and weighed between 18 and 22 grams at the start of the study. Tumor volume and body weight were measured every three days, and tumor weights were measured on Day 16 at the end of the study.
Phosphate buffered saline (PBS) was used as the negative control article (vehicle). TA-1 solution was stored at 2-8° C. and used up in one week. DTIC(SIGMA) was initially dissolved in 0.01 N HCl and then diluted with PBS to 1 mg/mL. DTIC dosing solution was kept on ice, protected from light, and used within one day. Final dosing solutions were prepared on the day of use by diluting the stock solution to 1× with water. The antibody reagent 9H10 (EBIOSCIENCE) was a ready-to-use agent at a concentration of 1 mg/mL.
Mortality and moribundity were checked twice daily, the body weights were recorded once every 3 days, and tumors were measured using a caliper once every 3 days. […]
Based on the tumor size, the tumor volume (TV) was calculated with the formula: [TV=(Length×Width×Width)/2]. And the percent inhibition (PI) of TV (PITV) was calculated according to the equation below: […]
The anti-tumor effect of the test article was further evaluated with tumor weight (TW) measured on day of necropsy (Day 16). The PI of TW was calculated using the equation below: […]

[2] = Body weight of B16 tumor-bearing C57BL/6 mice during treatment; type: in vivo; conditions: TA-1 6 mg/kg s.c. daily, alone or in combination, throughout the course of the study
Experimental: as §1
Mortality and moribundity were checked twice daily, the body weights were recorded once every 3 days, and tumors were measured using a caliper once every 3 days. At the end of the study (Day 16), the animals were euthanized by CO2 asphyxiation, and the tumors were excised and weighed.

Compound	mice with palpable tumors ([1]; Day 9, n=10 per group)	percent inhibition of tumor weight (PITW) [1] [%]	loss of body weight [2]
thymosin alpha 1 (Ac-SDAAVDTSSEITTKDLKEKKEVVEEAEN; ends and bridges not checked; UniProt P06454 2-29, looked up) [TA-1, 28 amino acid peptide with a molecular weight of 3108, initially isolated from Thymosin Fraction 5]	most mice	43.35	did not cause any loss of body weight
CN(C)/N=N/c1[nH]cnc1C(N)=O [DTIC, dacarbazine, reference compound]	–	28.41	–
